Measured values from patent US6150359A, “Naphthyridinones for inhibiting protein tyrosine kinase and cell cycle kinase mediated cellular proliferation” (Warner-Lambert Company, priority 2000, dated 2000).

Legend:
[1] = biological target: T1, EGFr (Human EGF receptor tyrosine kinase) (Homo sapiens, UniProt P00533); assay: EGFr tyrosine kinase assay; type: biochemical; conditions: 10 μM ATP
T1 construct: Human EGF receptor tyrosine kinase is isolated from A431 human epidermoid carcinoma cells; endogenous in cells; host or cells: A431 human epidermoid carcinoma cells (detergent lysate, Q Sepharose fractions)
Method: Epidermal Growth Factor Receptor (EGFr). Human EGF receptor tyrosine kinase is isolated from A431 human epidermoid carcinoma cells by the following method. Cells were grown in roller bottles in 50% Dulbecco's Modified Eagle medium and 50% HAM F-12 nutrient media (Gibco) containing 10% fetal calf serum. Approximately 10^9 cells are lysed in two volumes of buffer containing 20 mM 2-(4N-[2-[…]]piperazin-1-yl)ethanesulfonic acid (Hepes), pH 7.4, 5 mM ethylene glycol bis(2-aminoethyl ether) N,N,N',N'-tetraacetic acid (EGTA), 1% Triton X-100, 10% glycerol, 0.1 mM sodium orthovanadate, 5 mM sodium fluoride, 4 mM pyrophosphate, 4 mM benzamide, 1 mM dithiothreitol (DTT), 80 μg/mL aprotinin, 40 μg/mL leupeptin, and 1 mM phenylmethylsulfonyl fluoride (PMSF). After centrifugation at 25,000×g for 10 minutes, the supernatant is applied to a fast Q sepharose column (Pharmacia) and eluted with a linear gradient from 0.1 M NaCl to 0.4 M NaCl in 50 mM Hepes, 10% glycerol, pH 7.4. Enzyme active fractions are pooled, divided into aliquots, and stored at -100° C.
EGFr. Enzyme assays for IC50 determinations are performed in 96-well filter plates (Millipore MADVN6550). The total volume is 0.1 mL containing 20 mM Hepes, pH 7.4, 50 μM sodium vanadate, 40 mM magnesium chloride, 10 μM ATP containing 0.5 μCi of [^32 P]ATP, 20 μg of polyglutamic acid/tyrosine (Sigma Chemical Co., St. Louis, Mo.), 10 ng of EGF receptor tyrosine kinase and appropriate dilutions of inhibitor. All components except the ATP are added to the well, and the plate is incubated with shaking for 10 minutes at 25° C. The reaction is started by adding [^32 P]ATP, and the plate is incubated at 25° C. for 10 minutes. The reaction is terminated by addition of 0.1 mL of 20% trichloroacetic acid (TCA). The plate is kept at 4° C. for at least 15 minutes to allow the substrate to precipitate. The wells are then washed five times with 0.2 mL of 10% TCA, and ^32 P incorporation is determined with a Wallac beta plate counter.

c-Src = biological target: T2, c-Src (Homo sapiens, UniProt P12931); assay: c-Src kinase assay, 32P incorporation into polyglutamate-tyrosine; type: biochemical; conditions: 5 μM ATP
T2 construct: made in house; host or cells: baculovirus infected insect cells
Method: Other Kinases. c-Src kinase is purified from baculovirus infected insect cell lysates using an antipeptide monoclonal antibody directed against the N-terminal 2-17 amino acids as described previously by Fry, et al., Anticancer Drug Design, 1994;9:331-351. Protein kinase C (PKC.) is obtained as a rat brain preparation from Promega.
c-Src. The antibody, covalently linked to 0.65-μm latex beads, is added to a suspension of insect cell lysis buffer comprised of 150 mM NaCl, 50 mM Tris pH 7.5, 1 mM DTT, 1% NP-40, 2 mM EGTA, 1 mM sodium vanadate, 1 mM PMSF, 1 μg/mL each of leupeptin, pepstatin, and aprotinin. Insect cell lysate containing the c-Src protein is incubated with these beads for 3 to 4 hours at 4° C. with rotation. At the end of the lysate incubation, the beads are rinsed three times in lysis buffer, resuspended in lysis buffer containing 10% glycerol, and frozen. These latex beads are thawed, rinsed three times in assay buffer which is comprised of 40 mM tris pH 7.5, 5 mM magnesium chloride, and suspended in the same buffer. In a Millipore 96-well plate with a 0.65 μm polyvinylidine membrane bottom are added the reaction components: 10-μL c-Src beads, 10 μL of 2.5 mg/mL polyglutamate-tyrosine substrate, 5 μM ATP containing 0.2 μCi labeled ^32 P-ATP, 5 μL DMSO containing inhibitors or as a solvent control, and buffer to make the final volume 125 μL. The reaction is started at room temperature by addition of the ATP and quenched 10 minutes later by the addition of 125 μL of 30% TCA, 0.1 M sodium pyrophosphate for 15 minutes on ice. The plate is then filtered and the wells washed with two 250-μL aliquots of 15% TCA, 0.1 M pyrophosphate. The filters are punched, counted in a liquid scintillation counter, and the data examined for inhibitory activity in comparison to a known inhibitor such as erbstatin. The method is described more fully in J. Med. Chem., 1994;37:598-609.

SW-620 cells = assay: Human Colon Carcinoma Growth Delay Assay, SW-620; type: cell-based; conditions: 72 h, SW-620, 3 days
Method: Human Colon Carcinoma Growth Delay Assay. Human colon carcinoma cells are seeded into 96-well tissue culture plates in a final volume of 180 μL of 10% fetal bovine serum containing growth media and allowed to incubate overnight (37° C., 5% CO2, 95% air). Cells of the SW-620 cell line are seeded at 1.0-1.5×10^4 cells per well. Cells of the HCT-8 and HT-29 cell lines are seeded at 2-4×10^3 cells per well. Serially diluted drug solutions are prepared in growth medium at 10 times concentration; 20 μL of these solutions are added to duplicate wells and incubated with the cells for 3 days in a cell culture incubator. At the end of the incubation period, cells are fixed with 100 μL per well of 10% trichloroacetic acid after removing the drug/culture medium. The plates are washed five times with tap water and stained with 100 μL per well of 0.075% sulfrhodamine B in 1% acetic acid for 10 minutes. The plates are rinsed four times and allowed to air dry. The stain in the wells are solubilized by the addition of 10 mM unbuffered Tris base and the absorbance read using a microtiter plate optical reader. Inhibition of cell growth is calculated from absorbance data of the treated cells compared to untreated control cells.

T2 sequence (P12931 whole entry, species assumed): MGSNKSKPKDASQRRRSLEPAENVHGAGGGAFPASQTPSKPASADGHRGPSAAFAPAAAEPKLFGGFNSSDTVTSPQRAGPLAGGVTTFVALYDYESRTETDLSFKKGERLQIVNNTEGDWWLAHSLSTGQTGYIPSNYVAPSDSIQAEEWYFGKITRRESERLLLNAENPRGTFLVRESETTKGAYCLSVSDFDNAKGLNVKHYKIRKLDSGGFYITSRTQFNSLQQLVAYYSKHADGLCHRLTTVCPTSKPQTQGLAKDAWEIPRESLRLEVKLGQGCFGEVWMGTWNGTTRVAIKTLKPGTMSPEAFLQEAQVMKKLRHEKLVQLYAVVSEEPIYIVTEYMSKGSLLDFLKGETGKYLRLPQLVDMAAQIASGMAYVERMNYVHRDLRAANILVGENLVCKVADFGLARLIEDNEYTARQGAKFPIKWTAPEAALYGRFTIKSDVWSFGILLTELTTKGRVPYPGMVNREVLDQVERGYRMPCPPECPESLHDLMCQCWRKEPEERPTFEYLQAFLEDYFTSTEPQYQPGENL
T1 sequence (P00533 25-1210): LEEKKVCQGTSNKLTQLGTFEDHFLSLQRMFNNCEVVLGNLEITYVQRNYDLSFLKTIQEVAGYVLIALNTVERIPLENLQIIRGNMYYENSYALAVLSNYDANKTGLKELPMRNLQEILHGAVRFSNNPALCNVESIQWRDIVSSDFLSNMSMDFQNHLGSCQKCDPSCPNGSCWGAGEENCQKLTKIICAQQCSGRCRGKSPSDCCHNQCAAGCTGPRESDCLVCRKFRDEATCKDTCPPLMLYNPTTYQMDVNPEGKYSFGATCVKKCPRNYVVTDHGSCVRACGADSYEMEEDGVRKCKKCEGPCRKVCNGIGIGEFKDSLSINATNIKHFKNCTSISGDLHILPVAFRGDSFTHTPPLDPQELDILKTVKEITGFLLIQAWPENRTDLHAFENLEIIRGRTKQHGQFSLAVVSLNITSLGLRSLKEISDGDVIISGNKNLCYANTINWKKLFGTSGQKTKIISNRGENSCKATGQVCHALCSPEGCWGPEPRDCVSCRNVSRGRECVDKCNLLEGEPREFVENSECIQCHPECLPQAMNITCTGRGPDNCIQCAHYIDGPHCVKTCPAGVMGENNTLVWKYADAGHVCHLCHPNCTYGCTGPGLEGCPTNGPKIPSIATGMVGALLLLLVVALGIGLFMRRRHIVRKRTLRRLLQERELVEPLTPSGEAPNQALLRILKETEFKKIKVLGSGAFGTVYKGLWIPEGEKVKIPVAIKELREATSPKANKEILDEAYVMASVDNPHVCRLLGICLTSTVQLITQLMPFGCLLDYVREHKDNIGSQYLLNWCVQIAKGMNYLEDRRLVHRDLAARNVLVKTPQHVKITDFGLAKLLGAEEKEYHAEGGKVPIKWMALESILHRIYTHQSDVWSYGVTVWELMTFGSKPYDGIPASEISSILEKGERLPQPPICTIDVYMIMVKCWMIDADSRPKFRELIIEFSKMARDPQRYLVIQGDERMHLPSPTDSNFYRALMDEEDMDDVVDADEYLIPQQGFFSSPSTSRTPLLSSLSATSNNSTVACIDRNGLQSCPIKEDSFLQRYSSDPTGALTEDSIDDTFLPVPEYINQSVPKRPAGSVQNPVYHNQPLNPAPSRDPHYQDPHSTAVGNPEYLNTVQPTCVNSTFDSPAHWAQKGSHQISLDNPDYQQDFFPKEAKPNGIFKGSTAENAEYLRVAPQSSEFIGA

CCN(CC)CCCCNc1cc2c(cn1)cc(-c1c(Cl)cccc1Cl)c(=O)n2C [Example F, 3-(2,6-dichlorophenyl)-7-[4-(diethylamino)butylamino]-1-methyl-1H-[1,6]naphthyridin-2-one]
IC50 [1]: 3.8 µM
IC50 (c-Src): 0.04 µM
IC50 (SW-620 cells): 7.2 µM

CN1CCN(CCCNc2cc3c(cn2)cc(-c2c(Cl)cccc2Cl)c(=O)n3C)CC1 [Example H, 3-(2,6-dichlorophenyl)-1-methyl-7-[3-(4-methylpiperazin-1-yl)propylamino]-1H-[1,6]naphthyridin-2-one]
IC50 [1]: 3.2 µM
IC50 (c-Src): 0.06 µM
IC50 (SW-620 cells): 5.2 µM

CCN(CC)CCOc1ccc(Nc2cc3c(cn2)cc(-c2c(Cl)cccc2Cl)c(=O)n3C)cc1 [Example P, 3-(2,6-dichlorophenyl)-7-[(4-(2-(diethylamino)ethoxy)phenyl)amino]-1-methyl-1H-[1,6]naphthyridin-2-one]
IC50 [1]: 0.59 µM
IC50 (c-Src): 0.08 µM
IC50 (SW-620 cells): 6.7 µM

CN1CCN(CCOc2ccc(Nc3cc4c(cn3)cc(-c3c(Cl)cccc3Cl)c(=O)n4C)cc2)CC1 [Example S, 3-(2,6-dichlorophenyl)-1-methyl-7-[(4-(2-(4-methylpiperazin-1-yl)ethoxy)phenyl)amino]-1H-[1,6]naphthyridin-2-one]
IC50 (c-Src): 0.02 µM
IC50 (SW-620 cells): 6.8 µM
